Assay results as given in ChEMBL document CHEMBL1201862, “PubChem BioAssay data set” (2004).
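Interpolation was linear, between the two tested concentrations surrounding the appropriate level; five concentrations were tested over 48 hours in 96-well plates. GI50 marks 50% less growth.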 Activity calls are given as the source filed them. Cut-off read from the data, not from the text of the source: active = GI50 up to about 1.1 µM and inactive = higher.

Key:
Assay in all cases: NCI-60 cell line screen, 48 h
SK-MEL-5 = system: SK-MEL-5
LOX IMVI = system: LOX IMVI
SN12C = system: SN12C
HT-29 = system: HT-29
SNB-75 = system: SNB-75
SF-539 = system: SF-539
SNB-78 = system: SNB-78
SK-MEL-2 = system: SK-MEL-2
SK-OV-3 = system: SK-OV-3
Malme-3M = system: Malme-3M
OVCAR-4 = system: OVCAR-4
786-0 = system: 786-0
K562 = system: K562
UACC-257 = system: UACC-257
SR = system: SR
EKVX = system: EKVX
OVCAR-5 = system: OVCAR-5

Measured: GI50

O=c1cc(O)ccn1C1C=C(CO)C(O)C1O (configuration not stated)
inactive: SK-MEL-5 > 625 µM | LOX IMVI 455 µM | SN12C 586 µM | HT-29 > 625 µM | SNB-75 > 625 µM | SF-539 > 625 µM | SNB-78 > 625 µM | SK-MEL-2 > 625 µM | SK-OV-3 > 625 µM | Malme-3M > 625 µM | OVCAR-4 > 625 µM

Cc1c(/C=N/NC(=O)c2ccccc2O)c(=O)n(-c2ccccc2)n1C
inactive: 786-0 > 100 µM | LOX IMVI 45.4 µM | SN12C > 100 µM | HT-29 > 100 µM | SNB-75 > 100 µM | K562 > 100 µM | SF-539 > 100 µM | UACC-257 > 100 µM | SNB-78 > 100 µM | SK-MEL-2 > 100 µM | SK-OV-3 > 100 µM | Malme-3M > 100 µM | SR 45.8 µM | EKVX 49.2 µM | OVCAR-4 > 100 µM

CC(=O)Nc1ccccc1-c1nc2ccccc2nc1C
inactive: 786-0 > 100 µM | SK-MEL-5 > 100 µM | LOX IMVI > 100 µM | SN12C > 100 µM | OVCAR-5 > 100 µM | HT-29 > 100 µM | SNB-75 81.5 µM | K562 > 100 µM | SF-539 > 100 µM | UACC-257 > 100 µM | SNB-78 > 100 µM | SK-MEL-2 > 100 µM | SK-OV-3 > 100 µM | Malme-3M > 100 µM | SR > 100 µM | EKVX > 100 µM | OVCAR-4 > 100 µM

CC1(O)CCC2(C#N)CCC1C2O (configuration not stated)
inactive: 786-0 > 100 µM | SK-MEL-5 > 100 µM | LOX IMVI 23.2 µM | SN12C > 100 µM | OVCAR-5 > 100 µM | HT-29 > 100 µM | SNB-75 > 100 µM | K562 > 100 µM | SF-539 > 100 µM | UACC-257 > 100 µM | SNB-78 > 100 µM | SK-MEL-2 > 100 µM | SK-OV-3 > 100 µM | Malme-3M > 100 µM | SR 20.3 µM | EKVX > 100 µM | OVCAR-4 > 100 µM

COCOc1ccc(Cn2c(=O)n(C)c(=O)c3c2ncn3C)cc1[N+](=O)[O-]
inactive: 786-0 > 100 µM | LOX IMVI > 100 µM | SN12C > 100 µM | HT-29 10.2 µM | SNB-75 59.6 µM | K562 > 100 µM | SF-539 > 100 µM | UACC-257 57.5 µM | SNB-78 > 100 µM | SK-OV-3 49.3 µM | Malme-3M > 100 µM | SR > 100 µM | EKVX 54.7 µM

COc1cc[n+](C)cc1
inactive: SK-MEL-5 > 100 µM | LOX IMVI > 100 µM | SN12C > 100 µM | OVCAR-5 > 100 µM | HT-29 > 100 µM | SNB-75 > 100 µM | K562 > 100 µM | SF-539 > 100 µM | UACC-257 > 100 µM | SNB-78 > 100 µM | SK-MEL-2 > 100 µM | SK-OV-3 > 100 µM | Malme-3M > 100 µM | EKVX > 100 µM | OVCAR-4 > 100 µM

CC(=O)NC(CCCNC(=O)OCc1ccccc1)C(=O)O (configuration not stated)
inactive: 786-0 > 100 µM | SK-MEL-5 > 100 µM | LOX IMVI > 100 µM | SN12C > 100 µM | OVCAR-5 > 100 µM | HT-29 > 100 µM | SNB-75 68.1 µM | K562 > 100 µM | SF-539 > 100 µM | UACC-257 > 100 µM | SNB-78 49.5 µM | SK-MEL-2 > 100 µM | SK-OV-3 > 100 µM | Malme-3M > 100 µM | EKVX > 100 µM | OVCAR-4 36.1 µM

CCc1nc2ccccc2c(=O)n1/N=C(\N=N\c1ccc(Cl)cc1)c1ccccc1
inactive: 786-0 23.1 µM | SK-MEL-5 18.4 µM | LOX IMVI 16.9 µM | SN12C 36 µM | OVCAR-5 > 100 µM | HT-29 15.7 µM | SNB-75 14.6 µM | K562 > 10 µM | SF-539 22.5 µM | UACC-257 13.2 µM | SNB-78 27.1 µM | SK-MEL-2 32.7 µM | SK-OV-3 23.7 µM | Malme-3M 38.6 µM | EKVX 26.1 µM | OVCAR-4 23.5 µM

Cc1c(N2CCN(C)CC2)nc2ccc(Cl)cc2c1-c1ccccc1
inactive: 786-0 14.4 µM | SK-MEL-5 15.4 µM | LOX IMVI 14.7 µM | SN12C 14.7 µM | HT-29 14.3 µM | SNB-75 16.7 µM | K562 14.5 µM | SF-539 17.6 µM | UACC-257 17.9 µM | SNB-78 16.3 µM | SK-MEL-2 17.3 µM | SK-OV-3 47.4 µM | Malme-3M 16.9 µM | SR 17.9 µM | EKVX 17.7 µM | OVCAR-4 17.7 µM

C[C@H]1COC2(c3ccccc3)CCC(=O)N12 (some centres not stated)
inactive: 786-0 > 100 µM | SK-MEL-5 > 100 µM | LOX IMVI > 100 µM | SN12C > 100 µM | OVCAR-5 > 100 µM | HT-29 > 100 µM | SNB-75 > 100 µM | K562 > 100 µM | SF-539 > 100 µM | UACC-257 > 100 µM | SNB-78 > 100 µM | SK-MEL-2 > 100 µM | Malme-3M > 100 µM | SR > 100 µM | EKVX > 100 µM | OVCAR-4 > 100 µM

COc1cc(-c2ccc(/N=N/c3c(S(=O)(=O)O)cc4cc(S(=O)(=O)O)cc(N)c4c3O)c(OC)c2)ccc1/N=N/c1c(S(=O)(=O)O)cc2cc(S(=O)(=O)O)cc(N)c2c1O
inactive: SK-MEL-5 > 100 µM | LOX IMVI > 90.6 µM | SN12C > 100 µM | OVCAR-5 > 100 µM | HT-29 > 62.1 µM | SNB-75 37.4 µM | K562 > 78.7 µM | SF-539 > 100 µM | UACC-257 > 100 µM | SNB-78 78.3 µM | SK-MEL-2 > 100 µM | SK-OV-3 > 100 µM | Malme-3M > 100 µM | EKVX 88.5 µM | OVCAR-4 > 57 µM

O=C(CSc1nnc(-c2ccc(/N=C\c3ccc(Cl)cc3)cc2)o1)Nc1ccccc1
inactive: 786-0 21.5 µM | SK-MEL-5 89.9 µM | LOX IMVI 19.6 µM | SN12C > 100 µM | HT-29 44.2 µM | SNB-75 94.8 µM | K562 30.1 µM | UACC-257 > 100 µM | SNB-78 63.1 µM | SK-MEL-2 > 100 µM | SK-OV-3 > 100 µM | Malme-3M > 100 µM | SR 33.1 µM | EKVX > 100 µM | OVCAR-4 > 100 µM
